Test results taken from ChEMBL document CHEMBL5532679, “Discovery and Characterization of RGH-122, a Potent, Selective, and Orally Bioavailable V1a Receptor Antagonist” (J Med Chem, 2024).

System: not listed separately
Assay: animal or person
Settings: Mus musculus, NMRI, po, read-out: INH

Compound	inhibition in vivo at 10 mg/kg
Clc1ccc2c(c1)CCCc1nnc([C@H]3CC[C@H](Oc4ccccn4)CC3)n1-2	42%
O[C@@H]1Cc2cc(Cl)ccc2-n2c(nnc2[C@H]2CC[C@H](Oc3ccccn3)CC2)C1	84%
O[C@H]1Cc2cc(Cl)ccc2-n2c(nnc2[C@H]2CC[C@H](Oc3ccccn3)CC2)C1	92%
Clc1ccc2c(c1)CC1(Cc3nnc([C@H]4CC[C@H](Oc5ccccn5)CC4)n3-2)OCCCO1	79%
c1ccc(O[C@H]2CC[C@H](c3nnc4n3-c3ccccc3CC3(C4)OCCO3)CC2)nc1	49%
Fc1ccc2c(c1)CC1(Cc3nnc([C@H]4CC[C@H](Oc5ccccn5)CC4)n3-2)OCCO1	49%
CO[C@]1(C)CC[C@@H](c2nnc3n2-c2ccc(Cl)cc2CC2(C3)OCCO2)CC1	41%
N#Cc1ccc2c(c1)CC1(Cc3nnc([C@H]4CC[C@H](Oc5ccccn5)CC4)n3-2)OCCO1	69%
Brc1ccc2c(c1)CC1(Cc3nnc([C@H]4CC[C@H](Oc5ccccn5)CC4)n3-2)OCCO1	99%
FC(F)(F)c1ccc2c(c1)CC1(Cc3nnc([C@H]4CC[C@H](Oc5ccccn5)CC4)n3-2)OCCO1	76%

Molecular target: T1, Vasopressin V1a receptor (Homo sapiens, UniProt P37288)
Assay: not given
Settings: not given

T1 sequence (P37288 whole entry): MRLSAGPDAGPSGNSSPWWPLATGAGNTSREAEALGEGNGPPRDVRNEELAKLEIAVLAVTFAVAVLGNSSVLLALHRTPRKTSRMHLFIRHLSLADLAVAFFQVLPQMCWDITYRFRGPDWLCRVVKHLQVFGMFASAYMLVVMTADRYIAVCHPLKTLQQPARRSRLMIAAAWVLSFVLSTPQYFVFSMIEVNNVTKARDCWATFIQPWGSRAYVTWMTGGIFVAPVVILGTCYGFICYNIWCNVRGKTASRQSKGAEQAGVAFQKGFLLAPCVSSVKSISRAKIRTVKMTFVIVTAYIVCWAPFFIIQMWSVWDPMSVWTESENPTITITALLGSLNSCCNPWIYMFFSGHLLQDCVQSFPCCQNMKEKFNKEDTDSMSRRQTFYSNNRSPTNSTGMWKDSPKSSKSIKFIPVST

Compound	IC50
CN1CCN(CC2Cc3cc(Cl)ccc3-n3c(nnc3[C@H]3CC[C@H](Oc4ccccn4)CC3)C2)CC1 (some centres not stated)	7.1 nM
CN(C)CC1Cc2cc(Cl)ccc2-n2c(nnc2[C@H]2CC[C@H](Oc3ccccn3)CC2)C1 (some centres not stated)	4.7 nM
NC1CCc2cc(Cl)ccc2-n2c1nnc2[C@H]1CC[C@H](Oc2ccccn2)CC1 (some centres not stated)	42 nM
Clc1ccc2c(c1)CC(CN1CCOCC1)Cc1nnc([C@H]3CC[C@H](Oc4ccccn4)CC3)n1-2 (some centres not stated)	2.1 nM
CNC1CCc2nnc([C@H]3CC[C@H](Oc4ccccn4)CC3)n2-c2ccc(Cl)cc21 (some centres not stated)	6.9 nM
NCC1Cc2cc(Cl)ccc2-n2c(nnc2[C@H]2CC[C@H](Oc3ccccn3)CC2)C1 (some centres not stated)	15 nM
CC(C)NCC1Cc2cc(Cl)ccc2-n2c(nnc2[C@H]2CC[C@H](Oc3ccccn3)CC2)C1 (some centres not stated)	55 nM
Clc1ccc2c(c1)CC(CNC1CCOCC1)Cc1nnc([C@H]3CC[C@H](Oc4ccccn4)CC3)n1-2 (some centres not stated)	15 nM

System: not listed separately
Assay: in vitro
Settings: Wistar, rat, microsomes

Compound	microsomal CLint at 1 µM
O[C@@H]1Cc2cc(Cl)ccc2-n2c(nnc2[C@H]2CC[C@H](Oc3ccccn3)CC2)C1	56 µL/min/mg
O[C@H]1Cc2cc(Cl)ccc2-n2c(nnc2[C@H]2CC[C@H](Oc3ccccn3)CC2)C1	18 µL/min/mg
O=C([C@H]1CC[C@H](c2nnc3n2-c2ccc(Cl)cc2CC2(C3)OCCO2)CC1)N1CCOCC1	3 µL/min/mg
Clc1ccc2c(c1)CC1(Cc3nnc([C@H]4CC[C@H](Oc5ccccn5)CC4)n3-2)OCCCO1	15 µL/min/mg
N[C@@H]1Cc2cc(Cl)ccc2-n2c(nnc2[C@H]2CC[C@H](Oc3ccccn3)CC2)C1	7 µL/min/mg
CN1CCN(CC2Cc3cc(Cl)ccc3-n3c(nnc3[C@H]3CC[C@H](Oc4ccccn4)CC3)C2)CC1 (some centres not stated)	3 µL/min/mg
O=C(N[C@@H]1Cc2cc(Cl)ccc2-n2c(nnc2[C@H]2CC[C@H](Oc3ccccn3)CC2)C1)C1CCC(F)(F)CC1	32 µL/min/mg
O=C(N[C@@H]1Cc2cc(Cl)ccc2-n2c(nnc2[C@H]2CC[C@H](Oc3ccccn3)CC2)C1)C1CCC1	86 µL/min/mg
CC(C)(C)C(=O)N[C@@H]1Cc2cc(Cl)ccc2-n2c(nnc2[C@H]2CC[C@H](Oc3ccccn3)CC2)C1	77 µL/min/mg
CN(C)CC1Cc2cc(Cl)ccc2-n2c(nnc2[C@H]2CC[C@H](Oc3ccccn3)CC2)C1 (some centres not stated)	47 µL/min/mg
CO[C@]1(C)CC[C@@H](c2nnc3n2-c2ccc(Cl)cc2CC2(C3)OCCO2)CC1	12 µL/min/mg
Clc1ccc2c(c1)CC(CN1CCOCC1)Cc1nnc([C@H]3CC[C@H](Oc4ccccn4)CC3)n1-2 (some centres not stated)	145 µL/min/mg
NCC1Cc2cc(Cl)ccc2-n2c(nnc2[C@H]2CC[C@H](Oc3ccccn3)CC2)C1 (some centres not stated)	25 µL/min/mg
CC(C)NCC1Cc2cc(Cl)ccc2-n2c(nnc2[C@H]2CC[C@H](Oc3ccccn3)CC2)C1 (some centres not stated)	6 µL/min/mg
Clc1ccc2c(c1)CC(CNC1CCOCC1)Cc1nnc([C@H]3CC[C@H](Oc4ccccn4)CC3)n1-2 (some centres not stated)	8 µL/min/mg

System: not listed separately
Assay: in vitro
Settings: human, liver microsomes

Compound	microsomal CLint at 1 µM
Clc1ccc2c(c1)CCCc1nnc([C@H]3CC[C@H](Oc4ccccn4)CC3)n1-2	29 µL/min/mg

Same assay, conditions: human, microsomes

Compound	microsomal CLint at 1 µM
N[C@@H]1Cc2cc(Cl)ccc2-n2c(nnc2[C@H]2CC[C@H](Oc3ccccn3)CC2)C1	5 µL/min/mg
CN1CCN(CC2Cc3cc(Cl)ccc3-n3c(nnc3[C@H]3CC[C@H](Oc4ccccn4)CC3)C2)CC1 (some centres not stated)	11 µL/min/mg
O=C(N[C@@H]1Cc2cc(Cl)ccc2-n2c(nnc2[C@H]2CC[C@H](Oc3ccccn3)CC2)C1)C1CCC(F)(F)CC1	34 µL/min/mg
O=C(N[C@@H]1Cc2cc(Cl)ccc2-n2c(nnc2[C@H]2CC[C@H](Oc3ccccn3)CC2)C1)C1CCC1	157 µL/min/mg
CC(C)(C)C(=O)N[C@@H]1Cc2cc(Cl)ccc2-n2c(nnc2[C@H]2CC[C@H](Oc3ccccn3)CC2)C1	49 µL/min/mg
CN(C)CC1Cc2cc(Cl)ccc2-n2c(nnc2[C@H]2CC[C@H](Oc3ccccn3)CC2)C1 (some centres not stated)	42 µL/min/mg
Clc1ccc2c(c1)CC(CN1CCOCC1)Cc1nnc([C@H]3CC[C@H](Oc4ccccn4)CC3)n1-2 (some centres not stated)	134 µL/min/mg
NCC1Cc2cc(Cl)ccc2-n2c(nnc2[C@H]2CC[C@H](Oc3ccccn3)CC2)C1 (some centres not stated)	48 µL/min/mg
CC(C)NCC1Cc2cc(Cl)ccc2-n2c(nnc2[C@H]2CC[C@H](Oc3ccccn3)CC2)C1 (some centres not stated)	20 µL/min/mg
Clc1ccc2c(c1)CC(CNC1CCOCC1)Cc1nnc([C@H]3CC[C@H](Oc4ccccn4)CC3)n1-2 (some centres not stated)	14 µL/min/mg

Molecular target: T1, Vasopressin V1a receptor
Assay: not given
Settings: not given
Remark: another data set of the same source

Compound	Ki
CN1CCN(CC2Cc3cc(Cl)ccc3-n3c(nnc3[C@H]3CC[C@H](Oc4ccccn4)CC3)C2)CC1 (some centres not stated)	0.8 nM
CN(C)CC1Cc2cc(Cl)ccc2-n2c(nnc2[C@H]2CC[C@H](Oc3ccccn3)CC2)C1 (some centres not stated)	0.5 nM
NC1CCc2cc(Cl)ccc2-n2c1nnc2[C@H]1CC[C@H](Oc2ccccn2)CC1 (some centres not stated)	8 nM
Clc1ccc2c(c1)CC(CN1CCOCC1)Cc1nnc([C@H]3CC[C@H](Oc4ccccn4)CC3)n1-2 (some centres not stated)	0.4 nM
CNC1CCc2nnc([C@H]3CC[C@H](Oc4ccccn4)CC3)n2-c2ccc(Cl)cc21 (some centres not stated)	1.3 nM
NCC1Cc2cc(Cl)ccc2-n2c(nnc2[C@H]2CC[C@H](Oc3ccccn3)CC2)C1 (some centres not stated)	3.1 nM
CC(C)NCC1Cc2cc(Cl)ccc2-n2c(nnc2[C@H]2CC[C@H](Oc3ccccn3)CC2)C1 (some centres not stated)	2.8 nM
Clc1ccc2c(c1)CC(CNC1CCOCC1)Cc1nnc([C@H]3CC[C@H](Oc4ccccn4)CC3)n1-2 (some centres not stated)	2.3 nM

System: not listed separately
Assay: in vitro
Settings: NMRI, mouse, microsomes

Compound	microsomal CLint at 1 µM
O[C@@H]1Cc2cc(Cl)ccc2-n2c(nnc2[C@H]2CC[C@H](Oc3ccccn3)CC2)C1	5 µL/min/mg
O[C@H]1Cc2cc(Cl)ccc2-n2c(nnc2[C@H]2CC[C@H](Oc3ccccn3)CC2)C1	7 µL/min/mg
O=C([C@H]1CC[C@H](c2nnc3n2-c2ccc(Cl)cc2CC2(C3)OCCO2)CC1)N1CCOCC1	3 µL/min/mg
Clc1ccc2c(c1)CC1(Cc3nnc([C@H]4CC[C@H](Oc5ccccn5)CC4)n3-2)OCCCO1	27 µL/min/mg
N[C@@H]1Cc2cc(Cl)ccc2-n2c(nnc2[C@H]2CC[C@H](Oc3ccccn3)CC2)C1	9 µL/min/mg
CN1CCN(CC2Cc3cc(Cl)ccc3-n3c(nnc3[C@H]3CC[C@H](Oc4ccccn4)CC3)C2)CC1 (some centres not stated)	6 µL/min/mg
CN(C)CC1Cc2cc(Cl)ccc2-n2c(nnc2[C@H]2CC[C@H](Oc3ccccn3)CC2)C1 (some centres not stated)	39 µL/min/mg
CO[C@]1(C)CC[C@@H](c2nnc3n2-c2ccc(Cl)cc2CC2(C3)OCCO2)CC1	16 µL/min/mg
Clc1ccc2c(c1)CC(CN1CCOCC1)Cc1nnc([C@H]3CC[C@H](Oc4ccccn4)CC3)n1-2 (some centres not stated)	101 µL/min/mg
NCC1Cc2cc(Cl)ccc2-n2c(nnc2[C@H]2CC[C@H](Oc3ccccn3)CC2)C1 (some centres not stated)	35 µL/min/mg
CC(C)NCC1Cc2cc(Cl)ccc2-n2c(nnc2[C@H]2CC[C@H](Oc3ccccn3)CC2)C1 (some centres not stated)	8 µL/min/mg
Clc1ccc2c(c1)CC(CNC1CCOCC1)Cc1nnc([C@H]3CC[C@H](Oc4ccccn4)CC3)n1-2 (some centres not stated)	6 µL/min/mg

Molecular target: Voltage-gated inwardly rectifying potassium channel KCNH2 (Homo sapiens, UniProt Q12809)
Assay: not given
Settings: not given

Voltage-gated inwardly rectifying potassium channel KCNH2, sequence (Q12809 whole entry): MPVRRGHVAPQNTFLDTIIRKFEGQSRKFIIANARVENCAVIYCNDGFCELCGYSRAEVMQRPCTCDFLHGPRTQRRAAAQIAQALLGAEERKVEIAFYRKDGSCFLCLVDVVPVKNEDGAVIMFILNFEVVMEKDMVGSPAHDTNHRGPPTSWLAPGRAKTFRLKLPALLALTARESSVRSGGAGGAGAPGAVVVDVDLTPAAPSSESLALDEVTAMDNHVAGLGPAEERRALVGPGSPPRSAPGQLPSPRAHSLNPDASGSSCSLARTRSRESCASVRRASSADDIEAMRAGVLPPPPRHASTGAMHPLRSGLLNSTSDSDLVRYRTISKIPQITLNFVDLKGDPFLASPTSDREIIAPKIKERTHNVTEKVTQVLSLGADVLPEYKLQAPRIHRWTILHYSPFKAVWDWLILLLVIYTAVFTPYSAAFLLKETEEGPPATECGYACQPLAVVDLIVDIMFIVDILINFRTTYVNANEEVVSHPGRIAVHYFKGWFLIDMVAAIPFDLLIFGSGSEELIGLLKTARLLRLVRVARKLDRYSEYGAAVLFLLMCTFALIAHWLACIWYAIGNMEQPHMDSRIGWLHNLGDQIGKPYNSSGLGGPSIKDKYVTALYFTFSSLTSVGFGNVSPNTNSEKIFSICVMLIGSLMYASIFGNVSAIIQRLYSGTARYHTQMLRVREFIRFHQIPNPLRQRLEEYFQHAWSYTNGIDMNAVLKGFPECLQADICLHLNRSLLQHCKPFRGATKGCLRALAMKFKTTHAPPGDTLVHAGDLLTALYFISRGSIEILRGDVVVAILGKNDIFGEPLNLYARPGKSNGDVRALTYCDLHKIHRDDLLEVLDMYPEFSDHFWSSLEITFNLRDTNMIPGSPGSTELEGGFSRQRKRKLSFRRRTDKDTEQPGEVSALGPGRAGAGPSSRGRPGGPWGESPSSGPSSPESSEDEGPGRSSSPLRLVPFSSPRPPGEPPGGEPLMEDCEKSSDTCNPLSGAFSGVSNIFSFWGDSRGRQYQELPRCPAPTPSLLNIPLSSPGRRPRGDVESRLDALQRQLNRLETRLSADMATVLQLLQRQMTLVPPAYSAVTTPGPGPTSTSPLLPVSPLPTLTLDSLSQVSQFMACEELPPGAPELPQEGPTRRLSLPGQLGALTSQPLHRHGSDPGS

Compound	IC50
O[C@@H]1Cc2cc(Cl)ccc2-n2c(nnc2[C@H]2CC[C@H](Oc3ccccn3)CC2)C1	> 30000 nM
O[C@H]1Cc2cc(Cl)ccc2-n2c(nnc2[C@H]2CC[C@H](Oc3ccccn3)CC2)C1	> 30000 nM
N[C@@H]1Cc2cc(Cl)ccc2-n2c(nnc2[C@H]2CC[C@H](Oc3ccccn3)CC2)C1	16700 nM
CO[C@]1(C)CC[C@@H](c2nnc3n2-c2ccc(Cl)cc2CC2(C3)OCCO2)CC1	> 30000 nM

System: not listed separately
Assay: in vitro
Settings: CD-1, mouse, liver microsomes

Compound	microsomal CLint at 1 µM
O=C(N[C@@H]1Cc2cc(Cl)ccc2-n2c(nnc2[C@H]2CC[C@H](Oc3ccccn3)CC2)C1)C1CCC(F)(F)CC1	154 µL/min/mg
O=C(N[C@@H]1Cc2cc(Cl)ccc2-n2c(nnc2[C@H]2CC[C@H](Oc3ccccn3)CC2)C1)C1CCC1	91 µL/min/mg
CC(C)(C)C(=O)N[C@@H]1Cc2cc(Cl)ccc2-n2c(nnc2[C@H]2CC[C@H](Oc3ccccn3)CC2)C1	242 µL/min/mg

System: not listed separately
Assay: animal or person
Settings: Mus musculus, NMRI, po, read-out: INH
Remark: another data set of the same source

Compound	inhibition in vivo at 3 mg/kg
O[C@@H]1Cc2cc(Cl)ccc2-n2c(nnc2[C@H]2CC[C@H](Oc3ccccn3)CC2)C1	75%
O[C@H]1Cc2cc(Cl)ccc2-n2c(nnc2[C@H]2CC[C@H](Oc3ccccn3)CC2)C1	84%
Clc1ccc2c(c1)CC1(Cc3nnc([C@H]4CC[C@H](Oc5ccccn5)CC4)n3-2)OCCCO1	69%
CO[C@]1(C)CC[C@@H](c2nnc3n2-c2ccc(Cl)cc2CC2(C3)OCCO2)CC1	0%

System: not listed separately
Assay: Efflux ratio of apparent permeability across basolateral to apical side over apical to basolateral side in vinblastine treated human Caco-2 cells at 1 to 10 uM incubated for 15 to 60 hrs by HPLC analysis
Settings: not given

Compound	efflux ratio at 10 µM
O[C@@H]1Cc2cc(Cl)ccc2-n2c(nnc2[C@H]2CC[C@H](Oc3ccccn3)CC2)C1	3.5
O=C([C@H]1CC[C@H](c2nnc3n2-c2ccc(Cl)cc2CC2(C3)OCCO2)CC1)N1CCOCC1	29
Clc1ccc2c(c1)CC1(Cc3nnc([C@H]4CC[C@H](Oc5ccccn5)CC4)n3-2)OCCCO1	0.8
N[C@@H]1Cc2cc(Cl)ccc2-n2c(nnc2[C@H]2CC[C@H](Oc3ccccn3)CC2)C1	35
CN1CCN(CC2Cc3cc(Cl)ccc3-n3c(nnc3[C@H]3CC[C@H](Oc4ccccn4)CC3)C2)CC1 (some centres not stated)	7.5
CO[C@]1(C)CC[C@@H](c2nnc3n2-c2ccc(Cl)cc2CC2(C3)OCCO2)CC1	1
CNC1CCc2nnc([C@H]3CC[C@H](Oc4ccccn4)CC3)n2-c2ccc(Cl)cc21 (some centres not stated)	6.8
Clc1ccc2c(c1)CC(CNC1CCOCC1)Cc1nnc([C@H]3CC[C@H](Oc4ccccn4)CC3)n1-2 (some centres not stated)	7.1

System: not listed separately
Assay: Apparent permeability of compound across apical to basal side in vinblastine treated human Caco-2 cells at 1 to 10 uM incubated for 15 to 60 mins by HPLC analysis
Settings: not given

Compound	Papp A→B at 10 µM
O[C@@H]1Cc2cc(Cl)ccc2-n2c(nnc2[C@H]2CC[C@H](Oc3ccccn3)CC2)C1	23 ×10⁻⁶ cm/s
O[C@H]1Cc2cc(Cl)ccc2-n2c(nnc2[C@H]2CC[C@H](Oc3ccccn3)CC2)C1	20 ×10⁻⁶ cm/s
O=C([C@H]1CC[C@H](c2nnc3n2-c2ccc(Cl)cc2CC2(C3)OCCO2)CC1)N1CCOCC1	1.3 ×10⁻⁶ cm/s
Clc1ccc2c(c1)CC1(Cc3nnc([C@H]4CC[C@H](Oc5ccccn5)CC4)n3-2)OCCCO1	7 ×10⁻⁶ cm/s
N[C@@H]1Cc2cc(Cl)ccc2-n2c(nnc2[C@H]2CC[C@H](Oc3ccccn3)CC2)C1	2.8 ×10⁻⁶ cm/s
CN1CCN(CC2Cc3cc(Cl)ccc3-n3c(nnc3[C@H]3CC[C@H](Oc4ccccn4)CC3)C2)CC1 (some centres not stated)	8.6 ×10⁻⁶ cm/s
CO[C@]1(C)CC[C@@H](c2nnc3n2-c2ccc(Cl)cc2CC2(C3)OCCO2)CC1	42 ×10⁻⁶ cm/s
CNC1CCc2nnc([C@H]3CC[C@H](Oc4ccccn4)CC3)n2-c2ccc(Cl)cc21 (some centres not stated)	9.3 ×10⁻⁶ cm/s
Clc1ccc2c(c1)CC(CNC1CCOCC1)Cc1nnc([C@H]3CC[C@H](Oc4ccccn4)CC3)n1-2 (some centres not stated)	8.1 ×10⁻⁶ cm/s
